# Laboratory results as given in ChEMBL document CHEMBL4190173 (Medchemcomm, 2016).
# Activity calls are given as the source filed them. The calls are words filed in the database; no cut-off is given here.
# Key:
# [1] = molecular target: T1, NAD-dependent protein deacetylase sirtuin-1 (Homo sapiens, UniProt Q96EB6); assay: Inhibition of human recombinant SIRT1 using AMC-p53 (379 to 382 residues) as substrate incubated for 45 mins followed by NAD+ addition measured after 30 mins by fluorescence assay
# T1 sequence (Q96EB6 whole entry): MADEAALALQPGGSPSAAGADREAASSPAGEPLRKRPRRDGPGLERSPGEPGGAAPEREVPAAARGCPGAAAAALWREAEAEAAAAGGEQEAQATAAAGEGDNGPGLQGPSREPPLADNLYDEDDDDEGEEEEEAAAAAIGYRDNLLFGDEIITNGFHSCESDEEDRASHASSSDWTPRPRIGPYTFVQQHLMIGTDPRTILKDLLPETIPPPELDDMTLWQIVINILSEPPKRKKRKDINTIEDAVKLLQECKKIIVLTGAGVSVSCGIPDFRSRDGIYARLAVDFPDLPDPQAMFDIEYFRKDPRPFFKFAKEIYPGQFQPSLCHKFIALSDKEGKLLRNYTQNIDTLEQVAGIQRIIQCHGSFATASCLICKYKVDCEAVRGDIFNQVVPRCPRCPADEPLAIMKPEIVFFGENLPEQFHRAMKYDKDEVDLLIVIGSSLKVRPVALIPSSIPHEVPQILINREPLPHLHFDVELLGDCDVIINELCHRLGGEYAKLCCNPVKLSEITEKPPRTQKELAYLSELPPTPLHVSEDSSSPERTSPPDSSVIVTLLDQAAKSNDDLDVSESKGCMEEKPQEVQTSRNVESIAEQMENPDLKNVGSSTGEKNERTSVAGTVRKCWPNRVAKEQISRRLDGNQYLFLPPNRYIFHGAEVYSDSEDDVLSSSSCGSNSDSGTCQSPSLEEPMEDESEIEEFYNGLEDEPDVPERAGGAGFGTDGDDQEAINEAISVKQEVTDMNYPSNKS
# [2] = molecular target: T2, NAD-dependent protein deacetylase sirtuin-2 (Homo sapiens, UniProt Q8IXJ6); assay: Inhibition of human recombinant SIRT2 using AMC-p53 (317 to 320 residues) as substrate incubated for 45 mins followed by NAD+ addition measured after 30 mins by fluorescence assay
# T2 sequence (Q8IXJ6 whole entry): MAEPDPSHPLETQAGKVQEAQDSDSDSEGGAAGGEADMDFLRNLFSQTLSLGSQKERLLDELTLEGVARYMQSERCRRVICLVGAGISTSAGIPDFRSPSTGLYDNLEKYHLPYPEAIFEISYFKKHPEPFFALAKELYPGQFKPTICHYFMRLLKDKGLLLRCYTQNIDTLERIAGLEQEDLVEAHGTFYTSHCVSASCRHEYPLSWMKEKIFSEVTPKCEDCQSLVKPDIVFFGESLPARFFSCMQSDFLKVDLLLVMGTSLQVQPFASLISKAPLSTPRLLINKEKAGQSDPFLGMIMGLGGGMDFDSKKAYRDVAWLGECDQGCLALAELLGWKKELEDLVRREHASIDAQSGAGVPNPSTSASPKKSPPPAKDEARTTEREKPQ
# [3] = molecular target: T3, NAD-dependent protein deacetylase sirtuin-3, mitochondrial (Homo sapiens, UniProt Q9NTG7); assay: Inhibition of human recombinant SIRT3 using AMC-p53 (317 to 320 residues) as substrate incubated for 45 mins followed by NAD+ addition measured after 30 mins by fluorescence assay
# T3 sequence (Q9NTG7 whole entry): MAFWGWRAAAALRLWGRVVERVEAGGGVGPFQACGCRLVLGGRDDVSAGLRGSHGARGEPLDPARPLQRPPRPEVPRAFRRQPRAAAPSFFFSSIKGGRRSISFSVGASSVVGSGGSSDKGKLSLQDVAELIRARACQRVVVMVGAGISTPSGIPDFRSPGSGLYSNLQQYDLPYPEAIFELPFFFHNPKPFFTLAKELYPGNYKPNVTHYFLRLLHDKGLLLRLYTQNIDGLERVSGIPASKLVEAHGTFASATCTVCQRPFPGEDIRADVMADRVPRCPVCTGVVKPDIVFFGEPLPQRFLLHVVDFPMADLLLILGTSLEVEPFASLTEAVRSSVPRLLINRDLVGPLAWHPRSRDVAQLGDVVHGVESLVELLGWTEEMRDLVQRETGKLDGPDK
# [4] = molecular target: T4, NAD-dependent protein deacetylase sirtuin-1 (Homo sapiens) (UniProt Q96EB6); assay: Inhibition of human recombinant SIRT1 at 50 uM using AMC-p53 (379 to 382 residues) as substrate incubated for 45 mins followed by NAD+ addition measured after 30 mins by fluorescence assay relative to control
# T4 sequence (whole entry): T1 sequence (Q96EB6 whole entry)
# [5] = molecular target: T5, NAD-dependent protein deacetylase sirtuin-2 (Homo sapiens) (UniProt Q8IXJ6); assay: Inhibition of human recombinant SIRT2 at 50 uM using AMC-p53 ([…] residues) as substrate incubated for 45 mins followed by NAD+ addition measured after 30 mins by fluorescence assay relative to control
# T5 sequence (whole entry): T2 sequence (Q8IXJ6 whole entry)
# [6] = molecular target: T6, NAD-dependent protein deacetylase sirtuin-3, mitochondrial (Homo sapiens) (UniProt Q9NTG7); assay: Inhibition of human recombinant SIRT3 at 50 uM using AMC-p53 ([…] residues) as substrate incubated for 45 mins followed by NAD+ addition measured after 30 mins by fluorescence assay relative to control
# T6 sequence (whole entry): T3 sequence (Q9NTG7 whole entry)
# [7] = molecular target: T5, NAD-dependent protein deacetylase sirtuin-2 (Homo sapiens); assay: Competitive inhibition of human recombinant SIRT2 using varying levels of NAD+
# [8] = molecular target: T5, NAD-dependent protein deacetylase sirtuin-2 (Homo sapiens); assay: Competitive inhibition of human recombinant SIRT2 using varying levels of AMC-p53 (317 to 320 residues) as substrate
Compound,IC50 [1] [µM],IC50 [2] [µM],IC50 [3] [µM],inhibition [4] [%],inhibition [5] [%],inhibition [6] [%],inhibition [7],inhibition [8]
CCOC(=O)c1ccc(N2CCN(CCn3c(-c4ccc(-c5ccc(Cl)cc5)cc4)nc4cc(C(=O)OCC)ccc43)CC2)c(N)c1,,,,28.2,43.3,38,,
CN(C)CCCCC(=O)Nc1ccc(NC(=S)NC(=O)c2ccc(C(C)(C)C)cc2)cc1,,,82.6,,,,,
CCOC(=O)c1ccc(N2CCN(CCn3c(-c4ccc(-c5ccc6c(c5)OCO6)cc4)nc4cc(C(=O)OCC)ccc43)CC2)c(N)c1,29.8,16.1,27,,,,,
CCOC(=O)c1ccc(N2CCN(CCn3c(-c4ccc(-c5ccc(O)c(OC)c5)cc4)nc4cc(C(=O)OCC)ccc43)CC2)c(N)c1,35.1,8.61,,,,,,
CCOC(=O)c1ccc(N2CCN(CCn3c(-c4ccc(-c5ccc(O)cc5O)cc4)nc4cc(C(=O)OCC)ccc43)CC2)c(N)c1,20,7.87,,,,,,
CCOC(=O)c1ccc(N2CCN(CCn3c(-c4ccc(-c5ccc(N(C)C)cc5)cc4)nc4cc(C(=O)OCC)ccc43)CC2)c(N)c1,10.2,2.92,,,,,Active,Active
CCOC(=O)c1ccc(N2CCN(CCn3c(-c4ccc(-c5ccc(N6CCCCC6)cc5)cc4)nc4cc(C(=O)OCC)ccc43)CC2)c(N)c1,37,13.5,,,,,,
CCOC(=O)c1ccc(N2CCN(CCn3c(-c4ccc(-c5cncc(-c6ccc(F)cc6)c5)cc4)nc4cc(C(=O)OCC)ccc43)CC2)c(N)c1,,,,20.6,20.9,18.4,,
CCOC(=O)c1ccc(N2CCN(CCn3c(-c4ccc(-c5ccccc5)cc4)nc4cc(C(=O)OCC)ccc43)CC2)c(N)c1,,,,31.1,26.8,25.1,,
CCOC(=O)c1ccc(N2CCN(CCn3c(-c4ccc(-c5ccc(OC(F)(F)F)cc5)cc4)nc4cc(C(=O)OCC)ccc43)CC2)c(N)c1,,,,24.6,37.2,20.6,,

# Now from value to molecule:
IC50 [1] [µM],IC50 [2] [µM],IC50 [3] [µM],inhibition [4] [%],inhibition [5] [%],inhibition [6] [%],inhibition [7],inhibition [8],Compound
> 50,36.8,> 50,,,,,,CCCCCCCCn1c(-c2ccc(-c3ccc(N4CCCCC4)cc3)cc2)nc2cc(C(=O)OCC)ccc21
> 50,38.1,> 50,,,,,,CCCCCCCCn1c(-c2ccc(-c3ccc(N(C)C)cc3)cc2)nc2cc(C(=O)OCC)ccc21
,,,28.4,43,30.7,,,CCOC(=O)c1ccc(N2CCN(CCn3c(-c4ccc(-c5ccc(C)cc5)cc4)nc4cc(C(=O)OCC)ccc43)CC2)c(N)c1
,,,22,14,24.4,,,CCCCCCCCn1c(-c2ccc(-c3cccc(-c4ccc(F)cn4)c3)cc2)nc2cc(C(=O)OCC)ccc21
,,,25,35.6,16.9,,,CCCCCCCCn1c(-c2ccc(-c3ccc(OC(F)(F)F)cc3)cc2)nc2cc(C(=O)OCC)ccc21
> 50,41.4,> 50,,,,,,CCCCCCCCn1c(-c2ccc(-c3ccc4c(c3)OCO4)cc2)nc2cc(C(=O)OCC)ccc21
,,,29,45.9,31.5,,,CCCCCCCCn1c(-c2ccc(-c3ccc(O)cc3O)cc2)nc2cc(C(=O)OCC)ccc21
> 50,46.9,> 50,,,,,,CCCCCCCCn1c(-c2ccc(-c3ccc(O)c(OC)c3)cc2)nc2cc(C(=O)OCC)ccc21
,,,24.3,38.3,24.9,,,CCCCCCCCn1c(-c2ccc(-c3ccc(Cl)cc3)cc2)nc2cc(C(=O)OCC)ccc21
,,,15.3,30.3,19.4,,,CCCCCCCCn1c(-c2ccc(-c3ccc(C)cc3)cc2)nc2cc(C(=O)OCC)ccc21
,,,23.9,30,20.4,,,CCCCCCCCn1c(-c2ccc(-c3ccccc3)cc2)nc2cc(C(=O)OCC)ccc21
